Experimental data from ChEMBL document CHEMBL1921749, “5-Lipoxygenase-activating protein (FLAP) inhibitors. Part 4: development of 3-[3-tert-butylsulfanyl-1-[4-(6-ethoxypyridin-3-yl)benzyl]-5-(5-methylpyridin-2-ylmethoxy)-1H-indol-2-yl]-2,2-dimethylpropionic acid (AM803), a potent, oral, once daily FLAP inhibitor” (J Med Chem, 2011).

Biological target: T1, Arachidonate 5-lipoxygenase-activating protein (Homo sapiens, UniProt P20292)
T1 sequence (P20292 whole entry): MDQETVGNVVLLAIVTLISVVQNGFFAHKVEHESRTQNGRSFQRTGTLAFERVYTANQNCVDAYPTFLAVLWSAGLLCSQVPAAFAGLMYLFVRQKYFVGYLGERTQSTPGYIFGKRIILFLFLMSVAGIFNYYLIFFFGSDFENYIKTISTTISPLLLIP
Experiment: Displacement of [3H]-3-[5-(pyrid-2-ylmethoxy)-3-tert-butylthio-1-benzylindol-2-yl]-2,2-dimethylpropionic acid from FLAP in human polymorphonuclear cell membranes after 1 hr by scintillation counting

IC50 [nM] | SMILES
1.9 | CC(C)(C)Sc1c(CC(C)(C)C(=O)O)n(Cc2ccc(Cl)cc2)c2ccc(OCc3ccc4ccccc4n3)cc12 [QUIFLAPON SODIUM]
8.3 | Cc1ccc(COc2ccc3c(c2)c(SC(C)(C)C)c(CC(C)(C)C(=O)O)n3Cc2ccc(-c3ccc(=O)[nH]c3)cc2)nc1
2.2 | Cc1ccc(COc2ccc3c(c2)c(SC(C)(C)C)c(CC(C)(C)C(=O)O)n3Cc2ccc(-c3ccc(C)cn3)cc2)nc1
1.7 | COc1ccc(-c2ccc(Cn3c(CC(C)(C)C(=O)O)c(SC(C)(C)C)c4cc(OCc5ccc(C)cn5)ccc43)cc2)cn1
7.6 | COc1ccc(-c2ccc(Cn3c(CC(C)(C)C(=O)O)c(SC(C)(C)C)c4cc(OCc5ccc6cc(F)ccc6n5)ccc43)cc2)cn1

Biological target: T2, Arachidonate 5-lipoxygenase-activating protein (Rattus norvegicus, UniProt P20291)
T2 sequence (P20291 whole entry): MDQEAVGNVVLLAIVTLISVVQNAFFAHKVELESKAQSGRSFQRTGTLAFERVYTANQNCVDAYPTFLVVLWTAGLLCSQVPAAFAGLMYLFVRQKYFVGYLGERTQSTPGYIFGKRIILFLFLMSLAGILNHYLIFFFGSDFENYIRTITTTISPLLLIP
Experiment: Inhibition of FLAP in rat whole blood assessed as inhibition of calcium ionophore A23187-induced LTB4 production preincubated for 15 mins by ELISA
Type: tissue-based

IC50 [nM] | SMILES
117 | CC(C)(C)Sc1c(CC(C)(C)C(=O)O)n(Cc2ccc(Cl)cc2)c2ccc(OCc3ccc4ccccc4n3)cc12 [QUIFLAPON SODIUM]

Biological target: T2, Arachidonate 5-lipoxygenase-activating protein
Experiment: Inhibition of FLAP in rat whole blood assessed as inhibition of calcium ionophore A23187-induced LTB4 production preincubated for 4 hrs by ELISA
Type: tissue-based

IC50 [nM] | SMILES
10 | CC(C)(C)Sc1c(CC(C)(C)C(=O)O)n(Cc2ccc(Cl)cc2)c2ccc(OCc3ccc4ccccc4n3)cc12 [QUIFLAPON SODIUM]

Biological target: T1, Arachidonate 5-lipoxygenase-activating protein
Experiment: Inhibition of FLAP in human whole blood assessed as inhibition of calcium ionophore A23187-induced LTB4 production preincubated for 15 mins by ELISA

IC50 [nM] | SMILES
536 | CC(C)(C)Sc1c(CC(C)(C)C(=O)O)n(Cc2ccc(Cl)cc2)c2ccc(OCc3ccc4ccccc4n3)cc12 [QUIFLAPON SODIUM]
10000 | Cc1ccc(COc2ccc3c(c2)c(SC(C)(C)C)c(CC(C)(C)C(=O)O)n3Cc2ccc(-c3ccc(=O)[nH]c3)cc2)nc1
283 | Cc1ccc(COc2ccc3c(c2)c(SC(C)(C)C)c(CC(C)(C)C(=O)O)n3Cc2ccc(-c3ccc(C)cn3)cc2)nc1
328 | COc1ccc(-c2ccc(Cn3c(CC(C)(C)C(=O)O)c(SC(C)(C)C)c4cc(OCc5ccc(C)cn5)ccc43)cc2)cn1
747 | COc1ccc(-c2ccc(Cn3c(CC(C)(C)C(=O)O)c(SC(C)(C)C)c4cc(OCc5ccc6cc(F)ccc6n5)ccc43)cc2)cn1

SMILES | IC50 [nM]
CC(C)c1ccc2c(c1)c(SC(C)(C)C)c(CC(C)(C)C(=O)O)n2Cc1ccc(Cl)cc1 | 1400

Biological target: T1, Arachidonate 5-lipoxygenase-activating protein
Experiment: Inhibition of FLAP in human whole blood assessed as inhibition of calcium ionophore A23187-induced LTB4 production preincubated for 5 hrs by ELISA

IC50 [nM] | SMILES
108 | CC(C)(C)Sc1c(CC(C)(C)C(=O)O)n(Cc2ccc(Cl)cc2)c2ccc(OCc3ccc4ccccc4n3)cc12 [QUIFLAPON SODIUM]
1280 | Cc1ccc(COc2ccc3c(c2)c(SC(C)(C)C)c(CC(C)(C)C(=O)O)n3Cc2ccc(-c3ccc(=O)[nH]c3)cc2)nc1
130 | Cc1ccc(COc2ccc3c(c2)c(SC(C)(C)C)c(CC(C)(C)C(=O)O)n3Cc2ccc(-c3ccc(C)cn3)cc2)nc1
87 | COc1ccc(-c2ccc(Cn3c(CC(C)(C)C(=O)O)c(SC(C)(C)C)c4cc(OCc5ccc(C)cn5)ccc43)cc2)cn1
289 | COc1ccc(-c2ccc(Cn3c(CC(C)(C)C(=O)O)c(SC(C)(C)C)c4cc(OCc5ccc6cc(F)ccc6n5)ccc43)cc2)cn1

SMILES | IC50 [nM]
CC(C)c1ccc2c(c1)c(SC(C)(C)C)c(CC(C)(C)C(=O)O)n2Cc1ccc(Cl)cc1 | 1100

Biological target: T1, Arachidonate 5-lipoxygenase-activating protein
Experiment: Inhibition of FLAP in human whole blood assessed as inhibition of calcium ionophore A23187-induced LTB4 production preincubated for 11 hrs by ELISA

SMILES | IC50 [nM]
CC(C)(C)Sc1c(CC(C)(C)C(=O)O)n(Cc2ccc(Cl)cc2)c2ccc(OCc3ccc4ccccc4n3)cc12 [QUIFLAPON SODIUM] | 80
CC(C)c1ccc2c(c1)c(SC(C)(C)C)c(CC(C)(C)C(=O)O)n2Cc1ccc(Cl)cc1 | 1000

Biological target: T1, Arachidonate 5-lipoxygenase-activating protein
Experiment: Inhibition of FLAP in human peripheral leukocytes assessed as inhibition of calcium ionophore A23187-induced LTB4 production after 10 mins by ELISA
Type: cell-based

IC50 [nM] | SMILES
0.5 | CC(C)(C)Sc1c(CC(C)(C)C(=O)O)n(Cc2ccc(Cl)cc2)c2ccc(OCc3ccc4ccccc4n3)cc12 [QUIFLAPON SODIUM]
94 | Cc1ccc(COc2ccc3c(c2)c(SC(C)(C)C)c(CC(C)(C)C(=O)O)n3Cc2ccc(-c3ccc(=O)[nH]c3)cc2)nc1
0.5 | Cc1ccc(COc2ccc3c(c2)c(SC(C)(C)C)c(CC(C)(C)C(=O)O)n3Cc2ccc(-c3ccc(C)cn3)cc2)nc1
0.5 | COc1ccc(-c2ccc(Cn3c(CC(C)(C)C(=O)O)c(SC(C)(C)C)c4cc(OCc5ccc(C)cn5)ccc43)cc2)cn1
0.7 | COc1ccc(-c2ccc(Cn3c(CC(C)(C)C(=O)O)c(SC(C)(C)C)c4cc(OCc5ccc6cc(F)ccc6n5)ccc43)cc2)cn1

Biological target: T3, Prostaglandin G/H synthase 1 (Homo sapiens, UniProt P23219)
Experiment: Inhibition of COX1-mediated TXB2 production in human whole blood after 15 mins by competitive enzyme immunoassay

T3 sequence (P23219 whole entry): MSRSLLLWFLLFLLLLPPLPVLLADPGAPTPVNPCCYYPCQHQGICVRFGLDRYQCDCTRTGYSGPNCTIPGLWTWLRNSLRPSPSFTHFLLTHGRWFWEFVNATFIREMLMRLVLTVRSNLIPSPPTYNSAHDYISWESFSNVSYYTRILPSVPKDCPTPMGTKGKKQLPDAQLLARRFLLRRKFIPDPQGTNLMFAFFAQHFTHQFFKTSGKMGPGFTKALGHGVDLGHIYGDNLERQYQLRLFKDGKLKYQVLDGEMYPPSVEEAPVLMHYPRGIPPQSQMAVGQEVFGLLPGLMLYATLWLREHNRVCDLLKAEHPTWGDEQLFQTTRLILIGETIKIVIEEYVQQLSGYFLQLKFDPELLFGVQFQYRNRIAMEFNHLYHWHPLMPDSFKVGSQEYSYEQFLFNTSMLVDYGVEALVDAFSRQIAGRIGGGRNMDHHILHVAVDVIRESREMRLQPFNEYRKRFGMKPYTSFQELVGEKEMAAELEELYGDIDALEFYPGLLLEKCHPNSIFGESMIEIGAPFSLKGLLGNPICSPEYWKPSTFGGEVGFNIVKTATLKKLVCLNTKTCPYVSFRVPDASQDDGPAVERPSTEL

IC50 [nM] | SMILES
12300 | COc1ccc(-c2ccc(Cn3c(CC(C)(C)C(=O)O)c(SC(C)(C)C)c4cc(OCc5ccc(C)cn5)ccc43)cc2)cn1

Biological target: T3, Prostaglandin G/H synthase 1
Experiment: Inhibition of COX1-mediated TXB2 production in human whole blood after 5 hrs by competitive enzyme immunoassay

IC50 [nM] | SMILES
17300 | COc1ccc(-c2ccc(Cn3c(CC(C)(C)C(=O)O)c(SC(C)(C)C)c4cc(OCc5ccc(C)cn5)ccc43)cc2)cn1

Biological target: T1, Arachidonate 5-lipoxygenase-activating protein
Experiment: Inhibition of FLAP in human peripheral leukocytes assessed as inhibition of calcium ionophore A23187-induced LTB4 production after 5 mins by ELISA in absence of human serum albumin
Type: cell-based

SMILES | IC50 [nM]
CC(C)(C)Sc1c(CC(C)(C)C(=O)O)n(Cc2ccc(Cl)cc2)c2ccc(OCc3ccc4ccccc4n3)cc12 [QUIFLAPON SODIUM] | 1
CC(C)c1ccc2c(c1)c(SC(C)(C)C)c(CC(C)(C)C(=O)O)n2Cc1ccc(Cl)cc1 | 2.2

Biological target: T1, Arachidonate 5-lipoxygenase-activating protein
Experiment: Inhibition of FLAP in human peripheral leukocytes assessed as inhibition of calcium ionophore A23187-induced LTB4 production after 1 hr by ELISA in absence of human serum albumin
Type: cell-based

SMILES | IC50 [nM]
CC(C)(C)Sc1c(CC(C)(C)C(=O)O)n(Cc2ccc(Cl)cc2)c2ccc(OCc3ccc4ccccc4n3)cc12 [QUIFLAPON SODIUM] | 1
CC(C)c1ccc2c(c1)c(SC(C)(C)C)c(CC(C)(C)C(=O)O)n2Cc1ccc(Cl)cc1 | 5.7

Biological target: T1, Arachidonate 5-lipoxygenase-activating protein
Experiment: Inhibition of FLAP in human peripheral leukocytes assessed as inhibition of calcium ionophore A23187-induced LTB4 production after 10 mins by ELISA in presence of 0.5% human serum albumin
Type: cell-based

SMILES | IC50 [nM]
CC(C)(C)Sc1c(CC(C)(C)C(=O)O)n(Cc2ccc(Cl)cc2)c2ccc(OCc3ccc4ccccc4n3)cc12 [QUIFLAPON SODIUM] | 66
CC(C)c1ccc2c(c1)c(SC(C)(C)C)c(CC(C)(C)C(=O)O)n2Cc1ccc(Cl)cc1 | 19

Biological target: T1, Arachidonate 5-lipoxygenase-activating protein
Experiment: Inhibition of FLAP in human peripheral leukocytes assessed as inhibition of calcium ionophore A23187-induced LTB4 production after 3 hr by ELISA in presence of 0.5% human serum albumin
Type: cell-based

SMILES | IC50 [nM]
CC(C)(C)Sc1c(CC(C)(C)C(=O)O)n(Cc2ccc(Cl)cc2)c2ccc(OCc3ccc4ccccc4n3)cc12 [QUIFLAPON SODIUM] | 12
CC(C)c1ccc2c(c1)c(SC(C)(C)C)c(CC(C)(C)C(=O)O)n2Cc1ccc(Cl)cc1 | 27

Biological target: Cytochrome P450 3A4 (Homo sapiens, UniProt P08684)
Experiment: Inhibition of human CYP3A4
Type: ADME

Sequence of Cytochrome P450 3A4 (P08684 whole entry): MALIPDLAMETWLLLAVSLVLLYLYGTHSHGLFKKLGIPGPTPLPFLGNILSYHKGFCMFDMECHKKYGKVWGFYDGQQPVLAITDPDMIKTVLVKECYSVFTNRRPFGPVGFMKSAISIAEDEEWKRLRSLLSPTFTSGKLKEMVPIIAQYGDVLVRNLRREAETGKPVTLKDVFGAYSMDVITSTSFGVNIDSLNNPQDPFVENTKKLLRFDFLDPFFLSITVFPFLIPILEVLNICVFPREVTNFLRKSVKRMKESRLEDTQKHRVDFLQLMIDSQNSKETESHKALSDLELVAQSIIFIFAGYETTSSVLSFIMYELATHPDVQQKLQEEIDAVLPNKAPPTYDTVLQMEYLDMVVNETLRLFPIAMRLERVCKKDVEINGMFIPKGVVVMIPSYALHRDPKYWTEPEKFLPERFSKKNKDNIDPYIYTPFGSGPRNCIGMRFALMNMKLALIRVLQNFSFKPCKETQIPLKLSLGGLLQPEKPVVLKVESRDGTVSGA

IC50 [nM] | SMILES
8500 | Cc1ccc(COc2ccc3c(c2)c(SC(C)(C)C)c(CC(C)(C)C(=O)O)n3Cc2ccc(-c3ccc(C)cn3)cc2)nc1

Biological target: Cytochrome P450 2C9 (Homo sapiens, UniProt P11712)
Experiment: Inhibition of human CYP2C9
Type: ADME

Sequence of Cytochrome P450 2C9 (P11712 whole entry): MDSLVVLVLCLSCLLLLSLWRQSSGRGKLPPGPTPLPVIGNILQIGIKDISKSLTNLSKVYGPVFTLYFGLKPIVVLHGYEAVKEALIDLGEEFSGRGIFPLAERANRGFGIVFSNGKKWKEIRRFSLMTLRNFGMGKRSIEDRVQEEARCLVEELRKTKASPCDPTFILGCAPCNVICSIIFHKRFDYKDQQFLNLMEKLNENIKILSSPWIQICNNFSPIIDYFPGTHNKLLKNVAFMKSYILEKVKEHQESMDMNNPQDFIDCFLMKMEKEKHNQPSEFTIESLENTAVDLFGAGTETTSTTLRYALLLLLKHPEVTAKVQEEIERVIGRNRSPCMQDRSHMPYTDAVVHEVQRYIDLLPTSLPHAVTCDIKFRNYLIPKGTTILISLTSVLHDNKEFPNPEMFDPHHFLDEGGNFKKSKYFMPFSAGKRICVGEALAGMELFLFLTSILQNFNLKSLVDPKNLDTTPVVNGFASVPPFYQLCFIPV

IC50 [nM] | SMILES
12000 | Cc1ccc(COc2ccc3c(c2)c(SC(C)(C)C)c(CC(C)(C)C(=O)O)n3Cc2ccc(-c3ccc(C)cn3)cc2)nc1

Biological target: Cytochrome P450 2D6 (Homo sapiens, UniProt P10635)
Experiment: Inhibition of human CYP2D6
Type: ADME

Sequence of Cytochrome P450 2D6 (P10635 whole entry): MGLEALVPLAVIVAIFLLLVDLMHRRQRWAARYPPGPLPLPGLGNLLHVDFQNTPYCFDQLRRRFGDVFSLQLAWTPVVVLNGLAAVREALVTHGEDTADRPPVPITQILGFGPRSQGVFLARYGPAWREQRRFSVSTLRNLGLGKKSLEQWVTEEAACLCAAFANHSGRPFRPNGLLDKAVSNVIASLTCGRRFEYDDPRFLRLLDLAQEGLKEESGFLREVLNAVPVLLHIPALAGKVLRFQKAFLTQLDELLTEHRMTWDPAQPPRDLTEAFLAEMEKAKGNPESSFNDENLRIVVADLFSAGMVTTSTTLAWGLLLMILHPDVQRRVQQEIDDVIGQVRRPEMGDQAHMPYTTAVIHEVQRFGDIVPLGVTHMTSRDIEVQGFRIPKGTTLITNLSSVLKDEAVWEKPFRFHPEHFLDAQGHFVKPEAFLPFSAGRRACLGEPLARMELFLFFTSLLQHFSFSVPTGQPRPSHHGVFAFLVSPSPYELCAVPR

IC50 [nM] | SMILES
> 50000 | Cc1ccc(COc2ccc3c(c2)c(SC(C)(C)C)c(CC(C)(C)C(=O)O)n3Cc2ccc(-c3ccc(C)cn3)cc2)nc1

Biological target: T4, Arachidonate 5-lipoxygenase-activating protein (Homo sapiens) (UniProt P20292)
T4 sequence (whole entry): T1 sequence (P20292 whole entry)
Experiment: Ratio of IC50 for FLAP in human whole blood assessed as inhibition of calcium ionophore A23187-induced LTB4 production preincubated for 15 mins to IC50 for FLAP in human whole blood assessed as inhibition of calcium ionophore A23187-induced LTB4 production preincubated for 5 hrs

Ratio IC50 | SMILES
8 | Cc1ccc(COc2ccc3c(c2)c(SC(C)(C)C)c(CC(C)(C)C(=O)O)n3Cc2ccc(-c3ccc(=O)[nH]c3)cc2)nc1
2 | COc1ccc(-c2ccc(Cn3c(CC(C)(C)C(=O)O)c(SC(C)(C)C)c4cc(OCc5ccc6cc(F)ccc6n5)ccc43)cc2)cn1
